Test results reported in patent US7618964B2, “Benzamide derivatives, their manufacture and use as pharmaceutical agents” (Hoffmann-La Roche Inc., priority 2004, dated 2009).

Experiments:
[1] = target: T1, Src (p60^c-src, partially purified) (Homo sapiens, UniProt P12931); experiment: SRC-Inhibitor-Assay (time-resolved fluorescence kinase assay), Src; assay type: biochemical; details: ATP 5 μM, peptide 10 μM, enzyme 2.5 U/ml, pre-incubated 15 min at 15° C.
T1 construct: purchased UBI, Upstate Biotech, Inc
T1 sequence (P12931 whole entry, species assumed): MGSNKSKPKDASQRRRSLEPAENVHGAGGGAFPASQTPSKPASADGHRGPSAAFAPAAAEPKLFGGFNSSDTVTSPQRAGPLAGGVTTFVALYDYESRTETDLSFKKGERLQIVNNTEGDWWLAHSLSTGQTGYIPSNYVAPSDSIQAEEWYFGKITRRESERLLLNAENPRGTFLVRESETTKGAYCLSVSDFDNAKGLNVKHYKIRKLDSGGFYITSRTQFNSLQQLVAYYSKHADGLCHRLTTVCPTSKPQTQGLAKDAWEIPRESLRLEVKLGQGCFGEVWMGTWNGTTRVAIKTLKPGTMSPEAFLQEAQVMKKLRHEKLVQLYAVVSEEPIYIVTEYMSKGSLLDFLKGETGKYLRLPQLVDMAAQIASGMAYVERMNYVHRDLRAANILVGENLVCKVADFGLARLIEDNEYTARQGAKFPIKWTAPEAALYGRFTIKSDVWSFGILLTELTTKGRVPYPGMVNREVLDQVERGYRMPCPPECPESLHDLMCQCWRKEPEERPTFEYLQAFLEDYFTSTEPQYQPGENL
Excerpt: (§1) The activity of the compounds according to this invention as inhibitors for the src-family tyrosine kinases was shown by using the following assay.
(§2) SRC-Inhibitor-Assay Parameters:
(§3) Time-resolved Fluorescence Assay: Reader: Perkin Elmer, Wallac Viktor 1420-040 multilabel counter; Liquid handling system: Beckman Coulter, Biomek 2000.
(§4) ATP, Tween™ 20, 4-(2-hydroxyethyl)-1-piperazineethanesulfonic acid (HEPES) were purchased from Roche Molecular Biochemicals, MgCl2 and MnCl2 were purchased from Merck Eurolab, Tris(2-carboxyethyl)phosphine hydrochloride (TCEP) was purchased from Pierce, 384 Well low volume fluorescence plates was purchased from Falcon.
(§5) At first the enzyme is pre-incubated for 15 min. at 15° C. in aqueous solution with corresponding amounts of inhibitors according to this invention. Then the phosphorylation reaction is started by adding a reaction mixture, containing ATP, Peptide and PT66, and subsequent shaking. The proceeding of this reaction is immediately monitored using time resolved fluorescence spectroscopy in a suitable well plate reader.
(§6) The IC50-values can be obtained from the reaction rates by using a non-linear curve fit (XLfit software (ID Business Solution Ltd., Guilford, Surrey, UK))

Lck (p56^lck, active) = target: T2, Lck (p56^lck, active) (Homo sapiens, UniProt P06239); experiment: SRC-Inhibitor-Assay (time-resolved fluorescence kinase assay), Lck; assay type: biochemical; details: ATP 5 μM, peptide 10 μM, enzyme 2.5 U/ml, pre-incubated 15 min at 15° C.
T2 construct: purchased UBI, Upstate Biotech, Inc
T2 sequence (P06239 whole entry, species assumed): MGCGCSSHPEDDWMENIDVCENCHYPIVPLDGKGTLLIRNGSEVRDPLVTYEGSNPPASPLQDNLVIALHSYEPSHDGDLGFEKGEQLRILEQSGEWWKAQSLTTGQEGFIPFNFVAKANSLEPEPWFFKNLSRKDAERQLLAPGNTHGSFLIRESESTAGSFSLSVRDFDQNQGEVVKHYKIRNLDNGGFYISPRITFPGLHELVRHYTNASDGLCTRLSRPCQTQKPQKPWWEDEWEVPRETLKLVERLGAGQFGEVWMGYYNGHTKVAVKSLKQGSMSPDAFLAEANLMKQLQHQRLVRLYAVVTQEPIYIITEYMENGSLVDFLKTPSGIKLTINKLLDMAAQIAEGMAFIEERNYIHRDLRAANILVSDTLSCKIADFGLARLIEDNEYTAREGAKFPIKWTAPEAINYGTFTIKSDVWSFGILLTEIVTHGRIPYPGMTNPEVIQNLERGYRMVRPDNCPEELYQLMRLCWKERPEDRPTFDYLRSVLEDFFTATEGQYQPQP
Excerpt: as §1, §2, §3, §4, §5, §6

Q: With `O=C(Nc1cnc2[nH]c(-c3ccsc3)nc2c1)c1ccccc1Cl` [Example 4-7, 2-Chloro-N-(2-thiophen-3-yl-3H-imidazo[4,5-b]pyridin-6-yl)-benzamide] as the molecule, how does the IC50 [1] read?
A: The IC50 was 5 to 300 nM.

Q: What about the IC50 (Lck (p56^lck, active)) of the same molecule?
A: Its IC50 is 40 to 9000 nM.

Q: Which IC50 [1] does the source give for `COCCC(=O)Nc1cccc(-c2nc3cc(NC(=O)c4ccccc4Cl)cnc3[nH]2)c1` [Example 1-7, 2-Chloro-N-{2-[3-(3-methoxy-propionylamino)-phenyl]-3H-imidazo[4,5-b]pyridin-6-yl}-benzamide] here?
A: The IC50 was 5 to 300 nM.

Q: And the IC50 (Lck (p56^lck, active))?
A: The IC50 was 40 to 9000 nM.

Q: With `Cc1cccc(Cl)c1C(=O)Nc1cnc2[nH]c(-c3ccccc3)nc2c1` [Example 1-2, 2-Chloro-6-methyl-N-(2-phenyl-3H-imidazo[4,5-b]pyridin-6-yl)-benzamide] as the molecule, how does the IC50 [1] read?
A: Its IC50 is 5 to 300 nM.

Q: What about the IC50 (Lck (p56^lck, active)) of the same molecule?
A: Its IC50 is 40 to 9000 nM.

Q: With `COCCCNc1cc(-c2nc3cc(NC(=O)c4ccccc4Cl)cnc3[nH]2)ccn1` [Example 14-1, 2-Chloro-N-{2-[2-(3-methoxy-propylamino)-pyridin-4-yl]-3H-imidazo[4,5-b]pyridin-6-yl}-benzamide] as the molecule, how does the IC50 [1] read?
A: The IC50 was 5 to 300 nM.

Q: What about the IC50 (Lck (p56^lck, active)) of the same molecule?
A: Its IC50 is 40 to 9000 nM.

Q: With `O=C(Nc1cnc2[nH]c(-c3ccccc3)cc2c1)c1ccc(Cl)cc1Cl` [Example 12-4, 2,4-Dichloro-N-(2-phenyl-1H-pyrrolo[2,3-b]pyridine-5-yl)-benzamide] as the molecule, how does the IC50 [1] read?
A: The IC50 was 5 to 300 nM.

Q: What about the IC50 (Lck (p56^lck, active)) of the same molecule?
A: The IC50 was 40 to 9000 nM.

Q: Which results are given for `Cc1ccccc1C(=O)Nc1cnc2[nH]c(-c3ccccc3)cc2c1` [Example 12-7, 2-Methyl-N-(2-phenyl-1H-pyrrolo[2,3-b]pyridine-5-yl)-benzamide]?
A: IC50 [1]: 5 to 300 nM; IC50 (Lck (p56^lck, active)): 40 to 9000 nM

Q: `Nc1ccc(Cl)c(C(=O)Nc2cnc3[nH]c(-c4ccccc4)nc3c2)c1` [Example 3-1, 5-Amino-2-chloro-N-(2-phenyl-3H-imidazo[4,5-b]pyridin-6-yl)-benzamide] was tested. Which IC50 [1] did it give?
A: Its IC50 is 5 to 300 nM.

Q: What about the IC50 (Lck (p56^lck, active)) of the same molecule?
A: Its IC50 is 40 to 9000 nM.

Q: Which IC50 [1] does the source give for `CC(=O)Nc1cccc(-c2nc3cc(NC(=O)c4ccccc4Cl)cnc3[nH]2)c1` [Example 11-1, N-[2-(3-Acetylamino-phenyl)-3H-imidazo[4,5-b]pyridine-6-yl]-2-chloro-benzamide] here?
A: The IC50 was 5 to 300 nM.

Q: And the IC50 (Lck (p56^lck, active))?
A: Its IC50 is 40 to 9000 nM.

Q: How did the IC50 [1] turn out when `O=C(Nc1cnc2[nH]c(-c3ccccc3)nc2c1)c1ccccc1Cl` [Example 1-1, 2-Chloro-N-(2-phenyl-3H-imidazo[4,5-b]pyridin-6-yl)-benzamide] was run?
A: Its IC50 is 21 nM.

Q: And the IC50 (Lck (p56^lck, active))?
A: Its IC50 is 481 nM.

Q: Which IC50 [1] does the source give for `COCCN(CCOC)c1ccc(-c2nc3cc(NC(=O)c4ccccc4Cl)cnc3[nH]2)cc1F` [Example 13-1, N-(2-{4-[Bis-(2-methoxy-ethyl)-amino]-3-fluoro-phenyl}-3H-imidazo[4,5-b]pyridin-6-yl)-2-chloro-benzamide] here?
A: Its IC50 is 5 to 300 nM.

Q: And the IC50 (Lck (p56^lck, active))?
A: Its IC50 is 40 to 9000 nM.

Q: With `COCCOc1ccc(-c2nc3cc(NC(=O)c4ccccc4Cl)cnc3[nH]2)cc1` [Example 4-2, 2-Chloro-N-{2-[4-(2-methoxy-ethoxy)-phenyl]-3H-imidazo[4,5-b]pyridin-6-yl}-benzamide] as the molecule, how does the IC50 [1] read?
A: The IC50 was 5 to 300 nM.

Q: And the IC50 (Lck (p56^lck, active))?
A: Its IC50 is 40 to 9000 nM.

Q: What does the source list for `O=C(Nc1cnc2[nH]c(-c3ccc(N4CCOCC4)cc3)nc2c1)c1ccccc1Cl` [Example 4-5, 2-Chloro-N-[2-(4-morpholin-4-yl-phenyl)-3H-imidazo[4,5-b]pyridin-6-yl]-benzamide]?
A: IC50 [1]: 7 nM; IC50 (Lck (p56^lck, active)): 49 nM

Q: For `COc1cc(OC)cc(C(=O)Nc2cnc3[nH]c(-c4ccccc4)cc3c2)c1` [Example 12-12, 3,5-Dimethoxy-N-(2-phenyl-1H-pyrrolo[2,3-b]pyridine-5-yl)-benzamide], which IC50 [1] is on record?
A: The IC50 was 5 to 300 nM.

Q: What about the IC50 (Lck (p56^lck, active)) of the same molecule?
A: The IC50 was 40 to 9000 nM.

Q: Which IC50 [1] does the source give for `Cc1cccc(Cl)c1C(=O)Nc1cnc2[nH]c(-c3ccccc3)cc2c1` [Example 12-5, 2-Chloro-6-methyl-N-(2-phenyl-1H-pyrrolo[2,3-b]pyridine-5-yl)-benzamide] here?
A: The IC50 was 5 to 300 nM.

Q: What about the IC50 (Lck (p56^lck, active)) of the same molecule?
A: Its IC50 is 40 to 9000 nM.

Q: `CSc1cccc(-c2nc3cc(NC(=O)c4ccccc4Cl)cnc3[nH]2)c1` [Example 7-3, 2-Chloro-N-[2-(3-methylsulfanyl-phenyl)-3H-imidazo[4,5-b]pyridine-6-yl]-benzamide] was tested. Which IC50 [1] did it give?
A: The IC50 was 5 to 300 nM.

Q: What about the IC50 (Lck (p56^lck, active)) of the same molecule?
A: Its IC50 is 40 to 9000 nM.

Q: `COCC(COC)NC(=O)c1cccc(-c2nc3cc(NC(=O)c4ccccc4Cl)cnc3[nH]2)c1` [Example 6-3, 2-Chloro-N-(2-{3-[2-methoxy-1-methoxymethyl-ethylcarbamoyl]-phenyl}-3H-imidazo[4,5-b]pyridin-6-yl)-benzamide] was tested. Which IC50 [1] did it give?
A: The IC50 was 5 to 300 nM.

Q: And the IC50 (Lck (p56^lck, active))?
A: Its IC50 is 40 to 9000 nM.

Q: How did the IC50 [1] turn out when `Cc1ccc(N)cc1C(=O)Nc1cnc2[nH]c(-c3ccccc3)nc2c1` [Example 2-1, 5-Amino-2-methyl-N-(2-phenyl-3H-imidazo[4,5-b]pyridin-6-yl)-benzamide] was run?
A: The IC50 was 135 nM.

Q: And the IC50 (Lck (p56^lck, active))?
A: The IC50 was 160 nM.

Q: With `CN1CCN(c2ccc(-c3nc4cc(NC(=O)c5ccccc5Cl)cnc4[nH]3)cc2)CC1` [Example 4-8, 2-Chloro-N-{2-[4-(4-methyl-piperazin-1-yl)-phenyl]-3H-imidazo[4,5-b]pyridin-6-yl}-benzamide] as the molecule, how does the IC50 [1] read?
A: The IC50 was 5 to 300 nM.

Q: And the IC50 (Lck (p56^lck, active))?
A: The IC50 was 40 to 9000 nM.

Q: Which results are given for `O=C(Nc1cnc2[nH]c(-c3ccccc3)nc2c1)c1ccccc1Br` [Example 1-3, 2-Bromo-N-(2-phenyl-3H-imidazo[4,5-b]pyridin-6-yl)-benzamide]?
A: IC50 [1]: 5 to 300 nM; IC50 (Lck (p56^lck, active)): 40 to 9000 nM

Q: Which results are given for `COCCOc1ccc(-c2cc3cc(NC(=O)c4ccccc4OC)cnc3[nH]2)cc1` [Example 12-14, 2-Methoxy-N-{2-[4-(2-methoxy-ethoxy)-phenyl]-1H-pyrrolo[2,3-b]pyridin-5-yl}-benzamide]?
A: IC50 [1]: 5 to 300 nM; IC50 (Lck (p56^lck, active)): 40 to 9000 nM

Q: Which IC50 [1] does the source give for `O=C(Nc1cnc2[nH]c(-c3ccccc3)nc2c1)c1ccccc1` [Example 1-6, N-(2-Phenyl-3H-imidazo[4,5-b]pyridin-6-yl)-benzamide] here?
A: Its IC50 is 5 to 300 nM.

Q: What about the IC50 (Lck (p56^lck, active)) of the same molecule?
A: Its IC50 is 40 to 9000 nM.

Q: What does the source list for `O=C(Nc1cnc2[nH]c(-c3ccc4[nH]cnc4c3)nc2c1)c1ccccc1Cl` [Example 7-5, N-[2-(1H-Benzoimidazol-5-yl)-3H-imidazo[4,5-b]pyridine-6-yl]-2-chloro-benzamide]?
A: IC50 [1]: 5 to 300 nM; IC50 (Lck (p56^lck, active)): 40 to 9000 nM

Q: With `CCN(CC)CCOc1ccc(-c2nc3cc(NC(=O)c4ccccc4Cl)cnc3[nH]2)cc1` [Example 4-1, 2-Chloro-N-{2-[4-(2-diethylamino-ethoxy)-phenyl]-3H-imidazo[4,5-b]pyridin-6-yl}-benzamide] as the molecule, how does the IC50 [1] read?
A: Its IC50 is 5 to 300 nM.

Q: And the IC50 (Lck (p56^lck, active))?
A: The IC50 was 40 to 9000 nM.

Q: For `Cc1ccc(-c2nc3cc(NC(=O)c4ccccc4Cl)cnc3[nH]2)cn1` [Example 7-2, 2-Chloro-N-[2-(6-methyl-pyridin-3-yl)-3H-imidazo[4,5-b]pyridine-6-yl]-benzamide], which IC50 [1] is on record?
A: Its IC50 is 5 to 300 nM.

Q: What about the IC50 (Lck (p56^lck, active)) of the same molecule?
A: Its IC50 is 40 to 9000 nM.

Q: What does the source list for `Cc1ccc([N+](=O)[O-])cc1C(=O)Nc1cnc2[nH]c(-c3ccccc3)nc2c1` [Example 1-4, 2-Methyl-5-nitro-N-(2-phenyl-3H-imidazo[4,5-b]pyridin-6-yl)-benzamide]?
A: IC50 [1]: 300 to 3500 nM; IC50 (Lck (p56^lck, active)): 1000 to 9000 nM

Q: `O=C(Nc1cnc2[nH]c(-c3cccs3)nc2c1)c1ccccc1Cl` [Example 4-6, 2-Chloro-N-(2-thiophen-2-yl-3H-imidazo[4,5-b]pyridin-6-yl)-benzamide] was tested. Which IC50 [1] did it give?
A: Its IC50 is 5 to 300 nM.

Q: What about the IC50 (Lck (p56^lck, active)) of the same molecule?
A: Its IC50 is 40 to 9000 nM.

Q: Which results are given for `O=C(Nc1cnc2[nH]c(-c3ccccc3)cc2c1)c1ccccc1Cl` [Example 12-1, 2-Chloro-N-(2-phenyl-1H-pyrrolo[2,3-b]pyridine-5-yl)-benzamide]?
A: IC50 [1]: 5 to 300 nM; IC50 (Lck (p56^lck, active)): 40 to 9000 nM

Q: For `O=C(Nc1cnc2[nH]c(-c3ccc(N4CCOCC4)nc3)nc2c1)c1ccccc1Cl` [Example 7-7, 2-Chloro-N-[2-(6-morpholin-4-yl-pyridin-3-yl)-3H-imidazo[4,5-b]pyridine-6-yl]-benzamide], which IC50 [1] is on record?
A: The IC50 was 5 to 300 nM.

Q: What about the IC50 (Lck (p56^lck, active)) of the same molecule?
A: Its IC50 is 40 to 9000 nM.

Q: What does the source list for `Nc1cccc(-c2nc3cc(NC(=O)c4ccccc4Cl)cnc3[nH]2)c1` [Example 10-1, N-[2-(3-Amino-phenyl)-3H-imidazo[4,5-b]pyridine-6-yl]-2-chloro-benzamide]?
A: IC50 [1]: 5 to 300 nM; IC50 (Lck (p56^lck, active)): 40 to 9000 nM

Q: Which results are given for `C[S+]([O-])c1cccc(-c2nc3cc(NC(=O)c4ccccc4Cl)cnc3[nH]2)c1` (centres unmarked) [Example 9-1, 2-Chloro-N-[2-(3-methanesulfinyl-phenyl)-3H-imidazo[4,5-b]pyridine-6-yl]-benzamide]?
A: IC50 [1]: 5 to 300 nM; IC50 (Lck (p56^lck, active)): 40 to 9000 nM

Q: How did the IC50 [1] turn out when `O=C(Nc1cnc2[nH]c(-c3ccccc3)nc2c1)c1cc([N+](=O)[O-])ccc1Cl` [Example 1-5, 2-Chloro-5-nitro-N-(2-phenyl-3H-imidazo[4,5-b]pyridin-6-yl)-benzamide] was run?
A: Its IC50 is 300 to 3500 nM.

Q: What about the IC50 (Lck (p56^lck, active)) of the same molecule?
A: The IC50 was 1000 to 9000 nM.
